In one test the target is T1, substance P receptor from rat forebrain (Rattus norvegicus, UniProt P14600).
T1 construct: The receptor was prepared from the brain of Wistar rats (male, 8 weeks old, Charles-River); from tissue; host or cells: forebrain membranes of male Wistar rats
T1 sequence (P14600 whole entry): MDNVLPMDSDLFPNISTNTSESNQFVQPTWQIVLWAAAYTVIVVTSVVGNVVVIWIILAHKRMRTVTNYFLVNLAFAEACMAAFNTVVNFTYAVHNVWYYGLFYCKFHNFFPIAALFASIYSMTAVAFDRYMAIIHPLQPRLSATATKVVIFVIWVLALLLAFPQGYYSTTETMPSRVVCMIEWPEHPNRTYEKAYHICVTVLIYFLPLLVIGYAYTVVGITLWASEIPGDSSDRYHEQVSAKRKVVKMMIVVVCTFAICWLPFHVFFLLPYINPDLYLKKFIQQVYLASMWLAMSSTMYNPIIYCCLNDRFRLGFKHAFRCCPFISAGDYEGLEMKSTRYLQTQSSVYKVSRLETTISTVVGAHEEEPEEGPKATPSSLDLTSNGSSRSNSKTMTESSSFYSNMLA
Put plainly: Radioligand receptor binding inhibitory assay using receptor from rat forebrain (125I-BHSP). Particulars: 25° C., 30 minutes, pH 7.4. Further details: species or system rat (Wistar). How it is done: (1) Radioligand receptor binding inhibitory assay using receptor from rat forebrain The method of R. Qirion and […] (Neuropeptide 4, 325 (1984)) was modified and used. The receptor was prepared from the brain of Wistar rats (male, 8 weeks old, Charles-River). The rat was sacrificed by decapitation and the forebrain was isolated. The forebrain was homogenized in 30 ml/rat of 150 mM Tris-HCl buffer (pH 7.4) containing 120 mM sodium chloride and 5 mM potassium chloride using a Polytron homogenizer (Kinematika, Germany) and centrifuged at 40,000×G for 20 minutes. The pellet was suspended in 30 ml of 50 mM Tris-HCl buffer (pH 7.4) containing 300 mM potassium chloride and 10 mM ethylenediaminetetracetic acid and stirred gently with ice-cooling for 30 minutes. This suspension was centrifuged at 40,000×G for 20 minutes and the pellet was washed with 30 ml of 50 mM Tris-HCl buffer (pH 7.4). The receptor specimen thus obtained was preserved frozen (-80° C.). The above specimen was suspended in a reaction buffer (50 mM Tris-HCl buffer (pH 7.4), 0.02% bovine serum albumin, 1 mM phenylmethylsulfonyl fluoride, 2 μg/ml chymostatin, 40 μg/ml bacitracin, 3 mM manganese chloride) at a protein concentration of 1.5 mg/ml and a 100 μl portion of the suspension was used in the reaction. […] The amount of nonspecific binding was determined by adding substance P at a final concentration of 2×10^-6 M. After the reaction, using a cell harvester (290PHD, Cambridge Technology, Inc., England), rapid filtration was carried out through a glass filter (GF/B, Whatman, U.S.A.) to stop the reaction. After washings three times with 250 μl of 50 mM Tris-HCl buffer (pH 7.4) containing 0.02% bovine serum albumin, the radioactivity remaining on the filter was measured with a gamma counter. Before use, the filter was immersed in 0.1% polyethyleneimine for 24 hours and air-dried.
`Cc1cc2c(-c3ccccc3)c(NC(=O)NCc3ccccc3)n(C)c(=O)c2cc1C` [Example 2, N-Benzyl-N'-(1,2-dihydro-2,6,7-trimethyl-1-oxo-4-phenylisoquinolin-3-yl)ure] had an IC50 of 19 nM.

For `Cc1cc2c(-c3ccccc3)c(NC(=O)NCc3ccco3)n(C)c(=O)c2cc1C` [Example 12, N-(2-Furfuryl)-N'-(1,2-dihydro-2,6,7-trimethyl-1-oxo-4-phenylisoquinolin-3-yl)urea], the IC50 is 64 nM.

With `Cc1cc2c(-c3ccccc3)c(NC(=O)NCc3ccccn3)n(C)c(=O)c2cc1C` [Example 13, N-(1,2-Dihydro-2,6,7-trimethyl-1-oxo-4-phenylisoquinolin-3-yl)-N'-(2-pyridinemethyl)urea], the IC50 came out at 42 nM.

For the compound `Cc1cc2c(-c3ccccc3)c(NC(=O)NCc3cccs3)n(C)c(=O)c2cc1C` [Example 14, N-(1,2-Dihydro-2,6,7-trimethyl-1-oxo-4-Phenylisoquinolin-3-yl)-N'-(2-thiophenemethyl)urea], the IC50 amounted to 56 nM.

As to `Cc1cc2c(-c3ccccc3)c(NC(=O)NCC3CCCCC3)n(C)c(=O)c2cc1C` [Example 15, N-Cyclohexylmethyl-N'-(1,2-dihydro-2,6,7-trimethyl-1-oxo-4-phenylisoquinolin-3-yl)urea], the IC50 was 76 nM.

Take `Cc1ccc(CNC(=O)Nc2c(-c3ccccc3)c3cc(C)c(C)cc3c(=O)n2C)cc1` [Example 16, N-(1,2-Dihydro-2,6,7-trimethyl-1-oxo-4-phenylisoquinolin-3-yl)-N'-(4-methylbenzyl)urea]: the IC50 was determined as 11 nM.

In turn, `Cc1cc2c(-c3ccccc3)c(NC(=O)NCc3ccccc3C)n(C)c(=O)c2cc1C` [Example 18, N-(1,2-Dihydro-2,6,7-trimethyl-1-oxo-4-phenylisoquinolin-3-yl)-N'-(2-methylbenzyl)urea] showed an IC50 of 14 nM.

As for `CCn1c(NC(=O)NCc2ccccc2)c(-c2ccccc2)c2cc(C)c(C)cc2c1=O` [Example 19, N-Benzyl-N'-(2-ethyl-1,2-dihydro-6,7-dimethyl-1-oxo-4-phenylisoquinolin-3-yl)urea], the IC50 is 32 nM.

Take `COc1ccccc1-c1c(NC(=O)NCc2ccccc2)n(C)c(=O)c2ccccc12` [Example 24, N-Benzyl-N'-[1,2-dihydro-4-(2-methoxyphenyl)-2-methyl-1-oxoisoquinolin-3-yl]urea]: the IC50 was found to be 100 nM.

The same test, now with this note: read-out: concentration necessary to cause 50% inhibition [IC50], 25° C., 30 minutes, pH 7.4.
In the case of `Cc1cccc(CNC(=O)Nc2c(-c3ccccc3)c3cc(C)c(C)cc3c(=O)n2C)c1` [Example 17, N-(1,2-Dihydro-2,6,7-trimethyl-1-oxo-4-phenylisoquinolin-3-yl)-N'-(3-methylbenzyl)urea], the IC50 was 18 nM.

In another test the target is T2, substance P receptor from human lymphoblast cells (IM-9) (Homo sapiens, UniProt P25103).
T2 construct: The receptor was prepared from human lymphoblast cells (IM-9); endogenous in cells; host or cells: IM-9 human lymphoblast cells
T2 sequence (P25103 whole entry): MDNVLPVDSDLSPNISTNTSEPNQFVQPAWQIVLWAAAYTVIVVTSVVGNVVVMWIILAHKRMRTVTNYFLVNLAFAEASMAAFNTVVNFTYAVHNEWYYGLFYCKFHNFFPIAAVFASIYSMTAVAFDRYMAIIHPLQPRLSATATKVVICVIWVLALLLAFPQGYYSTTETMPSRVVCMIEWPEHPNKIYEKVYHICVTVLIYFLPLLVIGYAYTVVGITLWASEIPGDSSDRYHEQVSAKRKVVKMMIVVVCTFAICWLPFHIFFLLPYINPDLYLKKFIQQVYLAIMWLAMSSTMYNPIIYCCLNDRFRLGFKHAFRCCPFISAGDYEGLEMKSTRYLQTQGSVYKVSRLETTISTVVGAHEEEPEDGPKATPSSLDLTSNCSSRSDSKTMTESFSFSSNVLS
Kind of test: Radioligand receptor binding inhibitory assay using receptor from human lymphoblast cells (IM-9) (125I-BHSP). Particulars: human lymphoblast IM-9 cell receptor, 25° C., 30 minutes, pH 7.4. How it is done:
(2) Radioligand receptor binding inhibitory assay using receptor from human lymphoblast cells (IM-9)
The method of A. Margaret et al. [Molecular Pharmacology 42, 458 (1992)] was modified and used. The receptor was prepared from human lymphoblast cells (IM-9). IM-9 cells were grown in 175 cm^2 tissue culture flasks (100 ml×10) at a density approximately 2×10^5 /ml of RPMI 1640 with L-glutamine, 10% (V/V) heat inactivated fetal calf serum, penicillin (100 u/ml), and streptomycin (100 μg/ml) at 37° C. in 5%CO2 /95% air for 3 days. IM-9 cells were obtained by centrifugation at 500×g for 5 minutes at 5° C. The pellet obtained was washed once with phosphate buffer (Flow Laboratories, CAT. No. 28-103-05), homogenized using Polytron homogenizer(Kinematika, Germany) in 30 ml of 50 mM Tris-HCl buffer containing 120 mM NaCl, 5 mM KCl, 2 μg/ml phenylmethyl sufonyl fluoride, and 1 mM ethylenediamine tetra-acetic acid, and then centrifuged at 40,000×g for 20 minutes. The residue was washed twice with 30 ml of buffer described above, and preserved frozen (-80° C.).
The above specimen was suspended in a reaction buffer (50 mM Tris-HCl buffer (pH 7.4), 0.02% bovine serum albumin, 1 mM phenylmethylsulfonyl fluoride, 2 μg/ml chymostatin, 40 μg/ml bacitracin, 3 mM manganese chloride) at a protein concentration of 1.5 mg/ml and a 100 μl portion of the suspension was used in the reaction. After addition of the sample and 125I-BHSP (0.46 KBq), the reaction was conducted in 0.2 ml of reaction buffer at 25° C. for 30 minutes. The amount of nonspecific binding was determined by adding substance P at a final concentration of 2×10^-6 M. After the reaction, using a cell harvester (290PHD, Cambridge Technology, Inc., England), rapid filtration was carried out through a glass filter (GF/B, Whatman, U.S.A.) to stop the reaction. After washing three times with 250 μl of […] buffer (pH 7.4) containing 0.02% bovine serum albumin, the radioactivity remaining on the filter was measured with a gamma counter. Before use, the filter was immersed in 0.1% polyethyleneimine for 24 hours and air-dried.
In the case of `Cc1cc2c(-c3ccccc3)c(NC(=O)NCc3ccccc3Cl)n(C)c(=O)c2cc1C` [Example 42, N-(2-Chlorobenzyl)-N'-(1,2-dihydro-2,6,7-trimethyl-1-oxo-4-phenylisoquinolin-3-yl)urea], the IC50 is 76 nM.

The same test, now with this note: read-out: concentration necessary to cause 50% inhibition [IC50], human lymphoblast IM-9 cell receptor, 25° C., 30 minutes, pH 7.4.
On to `Cc1cc2c(-c3ccccc3)c(NC(=O)N(C)Cc3ccccc3)n(C)c(=O)c2cc1C` [Example 1, N-Benzyl-N'-(1,2-dihydro-2,6,7-trimethyl-1-oxo-4-phenylisoquinolin-3-yl)-N-methylurea], for which the IC50 worked out at 16 nM.

For the compound `COc1ccccc1CN(C)C(=O)Nc1c(-c2ccccc2)c2cc(C)c(C)cc2c(=O)n1C` [Example 3, N-(1,2-Dihydro-2,6,7-trimethyl-1-oxo-4-phenylisoquinolin-3-yl)-N'-(2-methoxybenzyl)-N'-methylurea], the IC50 came to 23 nM.

Regarding `Cc1cc2c(-c3ccccc3)c(NC(=O)N(C)Cc3ccccc3Cl)n(C)c(=O)c2cc1C` [Example 52], the IC50 came to 4.2 nM.

For `CCN(Cc1ccccc1)C(=O)Nc1c(-c2ccccc2)c2cc(C)c(C)cc2c(=O)n1C` [Example 53, N-Benzyl-N-ethyl-N'-(1,2-dihydro-2,6,7-trimethyl-1-oxo-4-phenylisoquinolin-3-yl)urea], the IC50 was 66 nM.

Source of the values: patent US5523305A, “Tachykinin receptor antagonists, isoquinolones and their production” (Takeda Chemical Industries, Ltd., priority 1992, dated 1996).
